Each structure is given as a SMILES string. In brackets after ≈: the same amount, converted by molar mass.

Holding throughout (format): functional
The test system of assay [1] is Staphylococcus sp. Put plainly: (§1) Antibacterial activity against methicillin-susceptible coagulase-negative Staphylococcus sp. assessed as percent susceptible isolates by CLSI dilution method.
The test system of assay [2] is Staphylococcus aureus. Briefly: Antibacterial activity against methicillin-resistant Staphylococcus aureus by CLSI dilution method.
Assay [3] has as its system Staphylococcus aureus. Briefly: Antibacterial activity against methicillin-susceptible Staphylococcus aureus isolate assessed as […] isolates by CLSI dilution method.
Assay [4] deals with Staphylococcus aureus. Put plainly: Antibacterial activity against methicillin-resistant Staphylococcus aureus isolate assessed as percent susceptible isolates by CLSI dilution method.
Assay [5] has as its system Staphylococcus sp. Briefly: Antibacterial activity against methicillin-susceptible coagulase-negative Staphylococcus sp. by CLSI dilution method.
The test system of assay [6] is Staphylococcus sp. Briefly: Antibacterial activity against methicillin-resistant coagulase-negative Staphylococcus sp. by CLSI dilution method.
In assay [7] the test system is Staphylococcus aureus. Put plainly: Antibacterial activity against methicillin-susceptible Staphylococcus aureus isolate by CLSI dilution method.
The test system of assay [8] is Staphylococcus sp. Described as §1. The source holds these as a separate data set.
Assay [9] deals with Staphylococcus aureus. Briefly: (§2) Antibacterial activity against methicillin-resistant Staphylococcus aureus isolate assessed as percent resistant isolates by CLSI dilution method.
Assay [10] has as its system Staphylococcus sp. Briefly: Antibacterial activity against methicillin-susceptible coagulase-negative Staphylococcus sp. assessed as percent resistant isolates by CLSI dilution method.
Assay [11] relates to Staphylococcus aureus. The assay is described as §2. The source holds these as a separate data set.
Assay [12] has as its system Staphylococcus sp. Briefly: Antibacterial activity against methicillin-resistant coagulase-negative Staphylococcus sp. assessed as percent resistant isolates by CLSI dilution method.

The term MIC50 denotes the lowest concentration that inhibits either 50% of growth or 50% of the strains tested, depending on the study. As a reminder, the MIC90 is the lowest concentration that inhibits either 90% of growth or 90% of the strains tested, depending on the study. A higher MIC90 goes with weaker potency. Regarding `CC(=O)NC[C@H]1CN(c2ccc(N3CCOCC3)c(F)c2)C(=O)O1` [LINEZOLID], the Activity in the assay on Staphylococcus sp. [1], in the assay with Staphylococcus aureus [3], with Staphylococcus aureus [4] and in the assay on Staphylococcus sp. [8] was 100% in each case. For the same compound, the MIC50 with Staphylococcus aureus [2] was found to be 2 µg/mL (≈ 5.93 µM); with Staphylococcus sp. [5], 1 µg/mL (≈ 2.96 µM); in the assay with Staphylococcus sp. [6], 1 µg/mL (≈ 2.96 µM); with Staphylococcus aureus [7] it was 4 µg/mL (≈ 11.9 µM). The MIC90 against Staphylococcus aureus [2] is 2 µg/mL (≈ 5.93 µM); in the assay with Staphylococcus sp. [5], 2 µg/mL (≈ 5.93 µM); against Staphylococcus sp. [6], 2 µg/mL (≈ 5.93 µM); in the assay on Staphylococcus aureus [7], 4 µg/mL (≈ 11.9 µM).

Regarding `Cc1onc(-c2ccccc2)c1C(=O)N[C@@H]1C(=O)N2[C@@H]1SC(C)(C)[C@@H]2C(=O)O` [OXACILLIN], the Activity in the assay on Staphylococcus aureus [9] stood at 0%; in the assay with Staphylococcus sp. [10] it was 0%; in the assay with Staphylococcus sp. [1], 100%; with Staphylococcus aureus [3] it was 100%; with Staphylococcus aureus [4], 0%; in the assay on Staphylococcus aureus [11], 100%. Besides, the Activity with Staphylococcus sp. [12] came to 100%; in the assay with Staphylococcus sp. [8], 0%. For the same compound, the MIC50 against Staphylococcus aureus [2] is above 128 µg/mL; in the assay with Staphylococcus sp. [5] it was 0.12 µg/mL (≈ 0.299 µM); with Staphylococcus sp. [6], 32 µg/mL (≈ 79.7 µM); in the assay with Staphylococcus aureus [7] it was 0.5 µg/mL (≈ 1.25 µM). Moreover, the MIC90 was above 128 µg/mL against Staphylococcus aureus [2], 0.25 µg/mL (≈ 0.623 µM) in the assay on Staphylococcus sp. [5], above 128 µg/mL against Staphylococcus sp. [6] and 0.5 µg/mL (≈ 1.25 µM) in the assay with Staphylococcus aureus [7].

As to `CN(C)[C@@H]1C(O)=C(C(N)=O)C(=O)[C@@]2(O)C(O)=C3C(=O)c4c(O)cccc4[C@@](C)(O)[C@H]3C[C@@H]12` [TETRACYCLINE], the Activity worked out at 12% in the assay with Staphylococcus aureus [9]; 22% with Staphylococcus sp. [10]; 78% in the assay with Staphylococcus sp. [1]; 88% with Staphylococcus aureus [3]; 25% in the assay with Staphylococcus aureus [4]; 75% with Staphylococcus aureus [11]. Further, the Activity came out at 31% with Staphylococcus sp. [12] and 67% in the assay with Staphylococcus sp. [8]. Also, the MIC50 came out at 64 µg/mL (≈ 144 µM) against Staphylococcus aureus [2], 0.5 µg/mL (≈ 1.13 µM) in the assay on Staphylococcus sp. [5], 2 µg/mL (≈ 4.5 µM) with Staphylococcus sp. [6] and 1 µg/mL (≈ 2.25 µM) against Staphylococcus aureus [7]. The MIC90 with Staphylococcus aureus [2] was 128 µg/mL (≈ 288 µM); against Staphylococcus sp. [5], 64 µg/mL (≈ 144 µM); against Staphylococcus sp. [6], 128 µg/mL (≈ 288 µM); against Staphylococcus aureus [7], 32 µg/mL (≈ 72 µM).

Turning to `CN[C@H](CC(C)C)C(=O)N[C@H]1C(=O)N[C@@H](CC(N)=O)C(=O)N[C@H]2C(=O)N[C@H]3C(=O)N[C@H](C(=O)N[C@H](C(=O)O)c4cc(O)cc(O)c4-c4cc3ccc4O)[C@H](O)c3ccc(c(Cl)c3)Oc3cc2cc(c3O[C@@H]2O[C@H](CO)[C@@H](O)[C@H](O)[C@H]2O[C@H]2C[C@](C)(N)[C@H](O)[C@H](C)O2)Oc2ccc(cc2Cl)[C@H]1O` [VANCOMYCIN], the Activity in the assay with Staphylococcus aureus [9] came to 0%; with Staphylococcus sp. [10] it was 0%; with Staphylococcus sp. [1], 100%; with Staphylococcus aureus [3], 100%; with Staphylococcus aureus [4] it was 100%; with Staphylococcus aureus [11], 0%. The Activity in the assay with Staphylococcus sp. [12] turned out to be 0%; in the assay on Staphylococcus sp. [8], 99%. Besides, the MIC50 against Staphylococcus aureus [2], against Staphylococcus sp. [5], with Staphylococcus sp. [6] and in the assay on Staphylococcus aureus [7] was 1 µg/mL (≈ 0.69 µM) each time. Moreover, the MIC90 was 1 µg/mL (≈ 0.69 µM) against Staphylococcus aureus [2], 2 µg/mL (≈ 1.38 µM) in the assay with Staphylococcus sp. [5], 2 µg/mL (≈ 1.38 µM) against Staphylococcus sp. [6] and 1 µg/mL (≈ 0.69 µM) against Staphylococcus aureus [7].

These data come from ChEMBL document CHEMBL1150783, “In vitro activities of CG400549, a novel FabI inhibitor, against recently isolated clinical staphylococcal strains in Korea” (2007).
